Measured values as given in patent publication US10463651B2, “3-(1H-pyrrolo[3,2-C]pyridin-2-YL)-1H-indazoles and therapeutic uses thereof” (Samumed, LLC, priority 2015, dated 2019).

How the values were obtained:
Type in all cases: cell-based
IL-6 (THP-1 cells) = assay: IL-6 inhibition in LPS-stimulated THP-1 cells (HTRF); conditions: Homo sapiens; for EC50: IL6 by HTRF, THP-1 cells, 500 ng/mL LPS, 22 hours; for inhibition at 10 µM: THP-1, read-out: percent inhibition at 10 M
How it was run: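 THP-1 cells, pre-cultured 24 h in 1% FBS medium, treated with compound 2 h at 37 °C, then stimulated with 500 ng/mL LPS for 22 h. Secreted IL-6 measured by HTRF as the 665/620 nm ratio. Values normalized to DMSO; EC50 from four-parameter fit, duplicates.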

[1] = system: Wnt activity (Sp5-Luc reporter, SW480 colon carcinoma cells); assay: Screening assay for Wnt activity (Sp5-Luc reporter gene assay in SW480 cells); conditions: Homo sapiens; for EC50: Sp5-Luc reporter, SW480 cells, incubated overnight; for inhibition at 10 µM: SW480, read-out: percent inhibition at 10 μM
How it was run: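 SW480 colon carcinoma cells stably carrying Sp5 promoter (eight TCF/LEF sites)-driven firefly luciferase, plated at 4,000 cells/well in 1% FBS medium and incubated overnight at 37° C. Luminescence normalised to DMSO-only cells; EC50 from four-parameter variable-slope nonlinear regression.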

SW480 colon cancer cells = assay: Cell viability assay (CellTiter-Blue); conditions: Homo sapiens; for EC50: 96 h, SW480 cell viability, four days, CellTiter-Blue; for inhibition at 10 µM: SW480, 96 h, read-out: percent inhibition at 10 μM
How it was run: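 Fluorescence from resazurin reduced to resorufin by metabolically active cells was the read-out, taken after ~3 h with CellTiter-Blue.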

[2] = system: primary human fibroblasts derived from IPF patients (LL29 cells) treated with TGF-β1; assay: Inhibition of the fibrotic process (αSMA staining) in TGF-β1-treated fibroblasts; conditions: Fibroblast, 96 h; for EC50: % αSMA-positive LL29 cells, TGF-β1 20 ng/mL, 4 days; for inhibition at 10 µM: read-out: percent inhibition at 10 μM
How it was run: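 LL29 fibroblasts from IPF patients, 1,500 cells/well in F12 with 1% FBS, stimulated with TGF-β1; TGF-β1 plus DMSO wells as controls. Incubation 4 days, then SYTOX green 1 μM final for 30 min at room temperature. Fibrotic response read as αSMA staining.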

[3] = system: primary human mesenchymal stem cells (hMSCs); assay: Induction of chondrogenesis in hMSCs (Rhodamine B / Nile Red nodule imaging); conditions: for EC50: concentration required to induce 50% levels of chondrogenesis vs TGF-β3 positive control, read-out: Conc (nM) of 50% TGF-β3 activity; for Emax: maximum activity relative to TGF-β3 (10 ng/mL) positive control, read-out: Max. Activity as % TGF-β3 activity
How it was run: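 Primary hMSCs at passage 3-6 were treated with compound; nodule area per well was normalized to the mean of 3 DMSO wells, averaged over 2-3 replicates, and the concentration giving 50% chondrogenesis relative to TGF-β3 control, plus maximum activity and its dose, was derived.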

| EC50 (IL-6 (THP-1 cells)) [nM] | EC50 [1] [nM] | EC50 (SW480 colon cancer cells) [nM] | EC50 [3] [nM] | SMILES | EC50 [2] [nM] | Emax [3] [%] | inhibition at 10 µM (IL-6 (THP-1 cells)) [%] | inhibition at 10 µM [1] [%] | inhibition at 10 µM (SW480 colon cancer cells) [%] | inhibition at 10 µM [2] [%] |
| --- | --- | --- | --- | --- | --- | --- | --- | --- | --- | --- |
| 149 | 275 | 491 | 900 | CCCCC(=O)Nc1cncc(-c2ccc3[nH]nc(-c4cc5cnccc5[nH]4)c3c2)c1 [Compound 271, N-(5-(3-(1H-Pyrrolo[3,2-c]pyridin-2-yl)-1H-indazol-5-yl)pyridin-3-yl)pentanamide] | 192 | 67 | – | – | – | – |
| 118 | 75 | 441 | 10 | O=C(Nc1cncc(-c2ccc3[nH]nc(-c4cc5cnccc5[nH]4)c3c2)c1)C1CCC1 [Compound 273, N-(5-(3-(1H-Pyrrolo[3,2-c]pyridin-2-yl)-1H-indazol-5-yl)pyridin-3-yl)cyclobutanecarboxamide] | 95 | 213 | – | – | – | – |
| 77 | 285 | 255 | 30 | O=C(Nc1cncc(-c2ccc3[nH]nc(-c4cc5cnccc5[nH]4)c3c2)c1)C1CCCCC1 [Compound 275, N-(5-(3-(1H-Pyrrolo[3,2-c]pyridin-2-yl)-1H-indazol-5-yl)pyridin-3-yl)cyclohexanecarboxamide] | 110 | 155 | – | – | – | – |
| 1840 | 1480 | 2300 | – | c1cc2[nH]c(-c3n[nH]c4ccc(-c5cncnc5)cc34)cc2cn1 [Compound 279, 5-(Pyrimidin-5-yl)-3-(1H-pyrrolo[3,2-c]pyridin-2-yl)-1H-indazole] | 686 | 22 | – | – | – | – |
| > 10000 | > 10000 | > 10000 | – | CN1CCN(c2nccc3[nH]c(-c4n[nH]c5ccc(-c6cncc(NC(=O)CC7CCNCC7)c6)cc45)cc23)CC1 [Compound 641] | 9900 | 43 | 28.7 | 0 | 20.9 | – |
| 1160 | 1860 | 552 | 30 | c1cc2[nH]c(-c3n[nH]c4ccc(-c5cncc(OCCN6CCCC6)c5)cc34)cc2cn1 [Compound 658, 5-(5-(2-(Pyrrolidin-1-yl)ethoxy)pyridin-3-yl)-3-(1H-pyrrolo[3,2-c]pyridin-2-yl)-1H-indazole] | 338 | 198 | – | – | – | – |

More lines, now with the values behind:

| SMILES | EC50 (IL-6 (THP-1 cells)) [nM] | EC50 [1] [nM] | EC50 (SW480 colon cancer cells) [nM] | EC50 [3] [nM] | EC50 [2] [nM] | Emax [3] [%] | inhibition at 10 µM (IL-6 (THP-1 cells)) [%] | inhibition at 10 µM [1] [%] | inhibition at 10 µM (SW480 colon cancer cells) [%] | inhibition at 10 µM [2] [%] |
| --- | --- | --- | --- | --- | --- | --- | --- | --- | --- | --- |
| Cc1ccncc1-c1ccc2[nH]nc(-c3cc4c(-c5ccoc5)nccc4[nH]3)c2c1 [Compound 313, 3-(4-(Furan-3-yl)-1H-pyrrolo[3,2-c]pyridin-2-yl)-5-(4-methylpyridin-3-yl)-1H-indazole] | 649 | 614 | 1580 | 2700 | 286 | 153 | – | – | – | – |
| c1cc2[nH]c(-c3n[nH]c4ccc(-c5cncc(CN6CCCCC6)c5)cc34)cc2c(-c2ccoc2)n1 [Compound 323, 3-(4-(Furan-3-yl)-1H-pyrrolo[3,2-c]pyridin-2-yl)-5-(5-(piperidin-1-ylmethyl)pyridin-3-yl)-1H-indazole] | > 10000 | 890 | 3420 | 10 | 1150 | 177 | 16.6 | – | – | – |
| c1ncc(-c2ccc3[nH]nc(-c4cc5c(-c6ccoc6)nccc5[nH]4)c3c2)cn1 [Compound 335, 3-(4-(Furan-3-yl)-1H-pyrrolo[3,2-c]pyridin-2-yl)-5-(pyrimidin-5-yl)-1H-indazole] | 508 | 1910 | 438 | – | 349 | 40 | – | – | – | – |
| Cc1ccncc1-c1ccc2[nH]nc(-c3cc4c(-c5cc(F)cc(CNS(C)(=O)=O)c5)nccc4[nH]3)c2c1 [Compound 481, N-(3-Fluoro-5-(2-(5-(4-methylpyridin-3-yl)-1H-indazol-3-yl)-1H-pyrrolo[3,2-c]pyridin-4-yl)benzyl)methanesulfonamide] | 103 | 304 | 500 | 300 | 528 | 267 | – | – | – | – |
| CC(C)Nc1cncc(-c2ccc3[nH]nc(-c4cc5c(-c6cc(F)cc(CNS(C)(=O)=O)c6)nccc5[nH]4)c3c2)c1 [Compound 488, N-(3-Fluoro-5-(2-(5-(5-(isopropylamino)pyridin-3-yl)-1H-indazol-3-yl)-1H-pyrrolo[3,2-c]pyridin-4-yl)benzyl)methanesulfonamide] | 40 | 151 | 358 | 300 | 125 | 191 | – | – | – | – |
| CS(=O)(=O)NCc1cc(F)cc(-c2nccc3[nH]c(-c4n[nH]c5ccc(-c6ccncc6)cc45)cc23)c1 [Compound 494, N-(3-Fluoro-5-(2-(5-(pyridin-4-yl)-1H-indazol-3-yl)-1H-pyrrolo[3,2-c]pyridin-4-yl)benzyl)methanesulfonamide] | > 10000 | > 10000 | > 10000 | 900 | > 10000 | 66 | 44.6 | 19 | 9.5 | 0 |
| CS(=O)(=O)NCc1cc(F)cc(-c2nccc3[nH]c(-c4n[nH]c5ccc(-c6cncc(CN7CCC(F)(F)C7)c6)cc45)cc23)c1 [Compound 502, N-(3-(2-(5-(5-((3,3-Difluoropyrrolidin-1-yl)methyl)pyridin-3-yl)-1H-indazol-3-yl)-1H-pyrrolo[3,2-c]pyridin-4-yl)-5-fluorobenzyl)methanesulfonamide] | 63 | 172 | 230 | 300 | 160 | 175 | – | – | – | – |
| CS(=O)(=O)NCc1cc(F)cc(-c2nccc3[nH]c(-c4n[nH]c5ccc(-c6cncnc6)cc45)cc23)c1 [Compound 503, N-(3-Fluoro-5-(2-(5-(pyrimidin-5-yl)-1H-indazol-3-yl)-1H-pyrrolo[3,2-c]pyridin-4-yl)benzyl)methanesulfonamide] | 35 | 3080 | > 10000 | – | > 10000 | 40 | – | – | 32.7 | 15.5 |
| Cc1ncc(-c2ccc3[nH]nc(-c4cc5c(-c6ccncc6)nccc5[nH]4)c3c2)n1C [Compound 573, 5-(1,2-Dimethyl-1H-imidazol-5-yl)-3-(4-(pyridin-4-yl)-1H-pyrrolo[3,2-c]pyridin-2-yl)-1H-indazole] | > 10000 | 1240 | 4020 | – | 9980 | 36 | 38.8 | – | – | – |
| COc1cncc(-c2ccc3[nH]nc(-c4cc5c(-c6ccsc6)nccc5[nH]4)c3c2)c1 [Compound 676, 5-(5-Methoxypyridin-3-yl)-3-(4-(thiophen-3-yl)-1H-pyrrolo[3,2-c]pyridin-2-yl)-1H-indazole] | 9120 | 808 | 500 | – | 2100 | 39 | – | – | – | – |
| COc1cncc(-c2ccc3[nH]nc(-c4cc5c(-c6ccoc6)nccc5[nH]4)c3c2)c1 [Compound 692, 3-(4-(Furan-3-yl)-1H-pyrrolo[3,2-c]pyridin-2-yl)-5-(5-methoxypyridin-3-yl)-1H-indazole] | 4530 | 309 | 227 | – | 741 | 20 | – | – | – | – |
